Measurements as given in paper PMC9814779, “A triple farnesoid X receptor and peroxisome proliferator-activated receptor α/δ activator reverses hepatic fibrosis in diet-induced NASH in mice” (Communications Chemistry, 2020).
Read-outs that look alike come from different tables or passages of the source.

Tests used:
[1] = molecular target: T1, human PPARα ligand-binding domain (Gal4 chimera) (Homo sapiens, UniProt Q07869); assay: Gal4 hybrid reporter gene assay, PPARα; type: cell-based; parameters: Emax: dose or concentration left out as unconfirmed; settings: for EC50: mean ± SEM
T1 construct: coding for the hinge region and LBD of the canonical isoform of the respective nuclear receptor; expressed in transfected cells; host or cells: HEK293T
T1 sequence (Q07869 239-466 limits assumed): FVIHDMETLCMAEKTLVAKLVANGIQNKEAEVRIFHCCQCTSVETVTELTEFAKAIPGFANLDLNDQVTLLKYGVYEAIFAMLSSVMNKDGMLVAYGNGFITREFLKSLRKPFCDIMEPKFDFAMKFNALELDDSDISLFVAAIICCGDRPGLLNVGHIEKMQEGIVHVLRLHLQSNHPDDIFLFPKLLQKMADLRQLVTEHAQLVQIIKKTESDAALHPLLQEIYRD

[2] = molecular target: T2, human PPARδ ligand-binding domain (Gal4 chimera) (Homo sapiens, UniProt Q03181); assay: Gal4 hybrid reporter gene assay, PPARδ; type: cell-based; parameters: Emax: dose or concentration left out as unconfirmed; settings: for EC50: mean ± SEM
T2 construct: coding for the hinge region and LBD of the canonical isoform of the respective nuclear receptor; expressed in transfected cells; host or cells: HEK293T
T2 sequence (Q03181 211-439 limits assumed): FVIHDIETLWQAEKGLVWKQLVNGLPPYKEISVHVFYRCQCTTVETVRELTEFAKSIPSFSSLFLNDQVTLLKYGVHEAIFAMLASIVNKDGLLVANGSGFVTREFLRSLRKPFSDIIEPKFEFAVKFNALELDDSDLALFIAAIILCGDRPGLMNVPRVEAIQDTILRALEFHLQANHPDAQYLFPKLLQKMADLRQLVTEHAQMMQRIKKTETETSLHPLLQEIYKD

[3] = molecular target: T3, human PPARγ ligand-binding domain (Gal4 chimera) (Homo sapiens, UniProt P37231); assay: Gal4 hybrid reporter gene assay, PPARγ; type: cell-based; parameters: Emax: dose or concentration left out as unconfirmed
T3 construct: coding for the hinge region and LBD of the canonical isoform of the respective nuclear receptor; expressed in transfected cells; host or cells: HEK293T
T3 sequence (P37231 238-503 limits assumed): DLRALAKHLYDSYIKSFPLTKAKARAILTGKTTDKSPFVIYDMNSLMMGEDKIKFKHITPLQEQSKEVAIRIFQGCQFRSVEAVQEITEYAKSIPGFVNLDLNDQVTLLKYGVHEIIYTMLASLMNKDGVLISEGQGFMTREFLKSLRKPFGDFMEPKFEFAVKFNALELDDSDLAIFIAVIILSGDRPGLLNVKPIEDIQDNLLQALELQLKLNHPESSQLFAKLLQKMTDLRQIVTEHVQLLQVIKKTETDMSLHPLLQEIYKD

[4] = molecular target: T4, human FXR:retinoid X receptor (RXR) heterodimer (Homo sapiens, UniProt Q96RI1); assay: Full-length FXR reporter gene assay (BSEP response element) in HeLa cells; type: cell-based; parameters: Emax: dose or concentration left out as unconfirmed; settings: for Emax: read-out: max. rel. act. FXR; for FXR max. rel. act.: Supplementary Table 1, relative to GW4064 at 3 µM
T4 construct: pcDNA3-hFXR[32] and pSG5-hRXR[33] served for receptor overexpression in the full-length FXR assay; expressed in transfected cells; host or cells: HeLa
T4 sequence (P19793 whole entry): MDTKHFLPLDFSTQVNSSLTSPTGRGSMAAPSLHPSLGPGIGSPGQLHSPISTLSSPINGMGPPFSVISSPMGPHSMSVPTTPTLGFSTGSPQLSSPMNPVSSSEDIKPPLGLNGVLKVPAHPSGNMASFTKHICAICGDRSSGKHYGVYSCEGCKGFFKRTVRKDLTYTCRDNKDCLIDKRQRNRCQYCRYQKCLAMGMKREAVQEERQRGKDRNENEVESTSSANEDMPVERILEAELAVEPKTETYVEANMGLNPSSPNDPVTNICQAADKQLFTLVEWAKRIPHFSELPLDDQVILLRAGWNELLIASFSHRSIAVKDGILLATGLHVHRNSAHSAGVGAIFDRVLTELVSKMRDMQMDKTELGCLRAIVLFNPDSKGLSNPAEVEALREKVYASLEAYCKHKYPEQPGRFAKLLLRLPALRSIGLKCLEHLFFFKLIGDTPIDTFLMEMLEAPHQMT
T4 sequence (Q96RI1 whole entry): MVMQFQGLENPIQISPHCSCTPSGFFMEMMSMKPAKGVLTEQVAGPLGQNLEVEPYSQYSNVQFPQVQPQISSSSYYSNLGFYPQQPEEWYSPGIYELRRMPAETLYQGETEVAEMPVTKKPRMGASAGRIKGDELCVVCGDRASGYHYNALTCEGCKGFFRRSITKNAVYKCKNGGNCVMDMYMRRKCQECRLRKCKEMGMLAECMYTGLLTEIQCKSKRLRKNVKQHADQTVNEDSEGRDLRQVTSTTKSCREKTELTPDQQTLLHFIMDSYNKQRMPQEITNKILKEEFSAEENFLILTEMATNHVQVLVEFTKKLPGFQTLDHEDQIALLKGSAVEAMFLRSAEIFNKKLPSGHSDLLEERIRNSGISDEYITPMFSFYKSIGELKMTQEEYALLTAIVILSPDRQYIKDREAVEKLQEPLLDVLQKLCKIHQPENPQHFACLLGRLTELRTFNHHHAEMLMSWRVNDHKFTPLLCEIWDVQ

[5] = Microsomal stability assay; type: in vitro ADME, rat; settings: 10 μM, rat liver microsomes, 37 °C; 41 n = 3, 7-EC n = 1
[6] = EC50 [μM] PPARα, HEK293T, n = 3
[7] = HEK293T, n = 3, read-out: EC50 [μM] PPARδ
[8] = HEK293T, mean ± SEM, n = 3, read-out: EC50 [μM] PPARγ
[9] = HeLa, mean ± SEM, n = 3, read-out: EC50 [μM] FXR
[10] = EC50 [μM] PPARδ, HEK293T, n = 3
[11] = PPAR EC50 [M], Supplementary Table 1, chromene derivatives, n ≥ 2
[12] = Supplementary Table 1, chromene derivatives, n ≥ 2, read-out: PPAR EC50
[13] = Supplementary Table 1, chromene derivatives, mean ± SEM, n ≥ 2, read-out: PPAR EC50
[14] = Supplementary Table 1, chromene derivatives, mean ± SEM, n ≥ 2, read-out: FXR EC50

SMILES | EC50 [1, 6] | Emax ([2]; read-out: max. rel. act. PPARδ) | Emax ([3]; read-out: max. rel. act. PPARγ) | Emax ([4]; HeLa) | EC50 [4, 9] | Emax ([1]; read-out: max. rel. act. PPARα) | EC50 [2, 10] | EC50 [3] | also measured
O=C(O)CCc1cccc(NC(=O)c2ccccc2NC(=O)c2ccc(-c3ccccc3)cc2)c1 [compound 30] | > 30 µM | 38% | 16 ± 10% | 33% | 1.3 ± 0.2 µM | – | – | – | EC50 [2, 7]: 2.5 ± 0.5 µM; EC50 [3, 8]: 1.6 ± 0.2 µM
Cc1ccc(NC(=O)c2ccc3ccccc3c2)c(C(=O)Nc2cccc(CCC(=O)O)c2)c1 [compound 18] | 0.8 ± 0.02 µM | 14% | 23% | – | > 10 µM | 25% | 0.21 ± 0.01 µM | 3.3 ± 0.1 µM | –
O=C(O)CCc1cccc(NC(=O)c2ccccc2NC(=O)C2=Cc3cc(Cl)ccc3OC2)c1 [S6] | – | – | – | – | – | – | – | – | EC50 [1, 11]: 3.1 ± 0.4 µM; Emax ([1]; read-out: PPAR max. rel. act.): 27 ± 2%; EC50 [2, 12]: 1.6 ± 0.5 µM; Emax ([2]; read-out: PPAR max. rel. act.): 14 ± 2%; EC50 [3, 13]: 3 ± 0.5 µM; Emax ([3]; read-out: PPAR max. rel. act.): 5.1 ± 0.3%; EC50 [4, 14]: > 10 µM
O=C(O)CCc1cccc(NC(=O)c2ccc(OC(F)(F)F)cc2NC(=O)c2ccc3ccccc3c2)c1 [compound 23] | 1.1 ± 0.3 µM | 30% | 15% | 12% | – | 31% | 0.38 ± 0.06 µM | 1 ± 0.2 µM | EC50 [4]: 1.1 ± 0.1 µM
Cc1ccc(C(=O)Nc2cccc(CCC(=O)O)c2)c(NC(=O)c2ccc3ccccc3c2)c1 [compound 17] | 1.7 ± 0.2 µM | 34% | 21% | 21% | 1.5 ± 0.1 µM | 67% | 0.17 ± 0.02 µM | 1.4 ± 0.3 µM | –
O=C(O)CCc1cccc(NC(=O)c2ccccc2NC(=O)c2ccc(-c3ccco3)cc2)c1 [compound 31] | 1.8 ± 0.3 µM | 43% | 9% | 23% | 5.4 ± 0.1 µM | 22% | 0.2 ± 0.01 µM | 2.2 ± 0.1 µM | –
O=C(O)CCc1cccc(NC(=O)c2ccccc2NC(=O)c2ccc(-c3ccon3)cc2)c1 [compound 35] | 8 ± 0.4 µM | 29% | 30% | 32% | 6.8 ± 0.6 µM | 11% | 5.6 ± 0.4 µM | 5.8 ± 0.8 µM | –
COc1cccc2c1OCC(C(=O)Nc1ccccc1C(=O)Nc1cccc(CCC(=O)O)c1)=C2 [S10] | – | – | – | – | – | – | – | – | EC50 [1, 11]: 6.6 ± 1.8 µM; Emax ([1]; read-out: PPAR max. rel. act.): 26 ± 5%; EC50 [2, 12]: 5.2 ± 0.2 µM; Emax ([2]; read-out: PPAR max. rel. act.): 30 ± 1%; EC50 [3, 13]: 23 ± 2 µM; Emax ([3]; read-out: PPAR max. rel. act.): 8.6 ± 0.6%; EC50 [4, 14]: 2.8 ± 0.3 µM; FXR max. rel. act. ([4]; n ≥ 2): 14 ± 1%
COc1ccc(C(=O)Nc2cccc(CCC(=O)O)c2)c(NC(=O)c2ccc3ccccc3c2)c1 [compound 22] | 0.3 ± 0.04 µM | 32% | 27% | 22% | 11 ± 3 µM | 43% | 0.06 ± 0.01 µM | 1.3 ± 0.1 µM | –
COc1ccc(C(=O)Nc2cccc(NCC(=O)O)c2)c(NC(=O)c2ccc(-c3ccoc3)cc2)c1 [compound 40, (3-[2-{4-(3-Furyl)benzamido}-4-methoxybenzamido]phenyl)glycine] | > 30 µM | 54% | 9% | 43% | 0.29 ± 0.01 µM | – | – | – | EC50 [2, 7]: 1.6 ± 0.1 µM; EC50 [3, 8]: 7.7 ± 0.5 µM
CCOc1ccc2ccc(=O)oc2c1 [7-EC, 7-Ethoxycoumarin, reference compound] | – | – | – | – | – | – | – | – | percent of remaining compound, 15 min [5]: 87%; percent of remaining compound, 30 min [5]: 75%; percent of remaining compound, 60 min [5]: 55%
O=C(O)CCc1cccc(NC(=O)c2ccccc2NC(=O)C2=Cc3cccc(O)c3OC2)c1 [S11] | – | – | – | – | – | – | – | – | EC50 [1, 11]: > 30 µM; EC50 [2, 12]: > 30 µM; EC50 [3, 13]: 7.9 ± 1.2 µM; Emax ([3]; read-out: PPAR max. rel. act.): 6.3 ± 0.5%; EC50 [4, 14]: > 10 µM
Cc1cccc2c1C=C(C(=O)Nc1ccccc1C(=O)Nc1cccc(CCC(=O)O)c1)CO2 [S3, 3-(3-[2-{5-Methyl-2H-chromene-3-carboxamido}benzamido]phenyl)propanoic acid] | – | – | – | – | – | – | – | – | EC50 [1, 11]: 0.83 ± 0.1 µM; Emax ([1]; read-out: PPAR max. rel. act.): 24 ± 1%; EC50 [2, 12]: 0.67 ± 0.04 µM; Emax ([2]; read-out: PPAR max. rel. act.): 27 ± 1%; EC50 [3, 13]: 8 ± 0.8 µM; Emax ([3]; read-out: PPAR max. rel. act.): 14 ± 1%; EC50 [4, 14]: 4.3 ± 0.3 µM; FXR max. rel. act. ([4]; n ≥ 2): 11 ± 1%
O=C(O)CCc1cccc(NC(=O)c2ccccc2NC(=O)c2ccc(-c3cnco3)cc2)c1 [compound 38] | > 30 µM | 32% | 16% | 53% | 15 ± 4 µM | – | – | – | EC50 [2, 7]: 12 ± 1 µM; EC50 [3, 8]: 5.3 ± 0.2 µM
COc1ccc(NC(=O)c2ccc3ccccc3c2)c(C(=O)Nc2cccc(CCC(=O)O)c2)c1 [compound 27] | 0.23 ± 0.04 µM | 23% | 15% | – | > 10 µM | 53% | 0.36 ± 0.01 µM | 2 ± 0.1 µM | –
O=C(O)CCc1cccc(NC(=O)c2ccccc2NC(=O)C2=C(Cl)c3ccccc3OC2)c1 [S2, 3-(3-[2-{4-Chloro-2H-chromene-3-carboxamido}benzamido]phenyl)propanoic acid] | – | – | – | – | – | – | – | – | EC50 [1, 11]: 0.46 ± 0.03 µM; Emax ([1]; read-out: PPAR max. rel. act.): 31 ± 1%; EC50 [2, 12]: 0.42 ± 0.01 µM; Emax ([2]; read-out: PPAR max. rel. act.): 31 ± 1%; EC50 [3, 13]: 2.3 ± 0.1 µM; Emax ([3]; read-out: PPAR max. rel. act.): 9 ± 0.1%; EC50 [4, 14]: 11 ± 1 µM; FXR max. rel. act. ([4]; n ≥ 2): 16 ± 1%
Cc1cccc(NC(=O)c2ccc3ccccc3c2)c1C(=O)Nc1cccc(CCC(=O)O)c1 [compound 19] | 7.4 ± 0.4 µM | 20% | 2.5% | – | > 10 µM | 15% | 6.3 ± 0.9 µM | 11 ± 2 µM | –
